Measured values published in the supplement of paper PMC10307832.

Tests used:
Assay in all cases: relative viability (nuclei count vs DMSO), 5 days (fraction); higher = more cells survive
[1] = compound: O=c1[nH]cc(F)c(=O)[nH]1 [5-Fluorouracil] + COc1cc2c(Oc3ccc(NC(=O)C4(C(=O)Nc5ccc(F)cc5)CC4)cc3F)ccnc2cc1OCCCN1CCOCC1 [Foretinib] (partner 0.25 µM)
In short: (§1)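 Relative viability divides the nuclei count in treated wells by that in vehicle wells. Lung cancer cell lines were seeded in 1536-well plates, dosed by pin tool the next day, and fixed and stained after 5 days in one step with final 0.05% Triton X-100, 1% formaldehyde and 1 ug/ml Hoechst. Dosing was a single drug or a fixed anchor-drug dose plus five library-drug doses (not always all listed) in √10 steps, and values are medians of duplicate plates imaged at 4×.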

Sulindac + Pemetrexed = compound: CC1=C(CC(=O)O)c2cc(F)ccc2/C1=C\c1ccc([S+](C)[O-])cc1 [Sulindac] + Nc1nc2[nH]cc(CCc3ccc(C(=O)N[C@@H](CCC(=O)O)C(=O)O)cc3)c2c(=O)[nH]1 [Pemetrexed] (partner 0.2 µM)
In short: as §1

[2] = compound: O=c1[nH]cc(F)c(=O)[nH]1 [5-Fluorouracil] + Cc1nc(Nc2ncc(C(=O)Nc3c(C)cccc3Cl)s2)cc(N2CCN(CCO)CC2)n1 [Dasatinib] (partner 0.075 µM)
In short: as §1

Staurosporine + AZD7762 = compound: CN[C@@H]1C[C@H]2O[C@@](C)([C@@H]1OC)n1c3ccccc3c3c4c(c5c6ccccc6n2c5c31)C(=O)NC4 [Staurosporine] + NC(=O)Nc1cc(-c2cccc(F)c2)sc1C(=O)N[C@H]1CCCNC1 [AZD7762] (partner 0.2 µM)
In short: as §1

Cell Line	relative viability ([1]; first compound 0.02 µM)	relative viability ([1]; first compound 0.2 µM)	relative viability ([1]; first compound 0.6325 µM)	relative viability ([1]; first compound 2 µM)	relative viability (Sulindac + Pemetrexed; first compound 0.08 µM)	relative viability (Sulindac + Pemetrexed; first compound 0.253 µM)	relative viability (Sulindac + Pemetrexed; first compound 0.8 µM)	relative viability (Sulindac + Pemetrexed; first compound 2.53 µM)	relative viability (Sulindac + Pemetrexed; first compound 8 µM)	relative viability ([2]; first compound 0.02 µM)	relative viability ([2]; first compound 0.2 µM)	relative viability ([2]; first compound 0.6325 µM)	relative viability ([2]; first compound 2 µM)	relative viability (Staurosporine + AZD7762; first compound 0.005 µM)	relative viability (Staurosporine + AZD7762; first compound 0.01581 µM)	relative viability (Staurosporine + AZD7762; first compound 0.05 µM)	relative viability (Staurosporine + AZD7762; first compound 0.1581 µM)	relative viability (Staurosporine + AZD7762; first compound 0.5 µM)
NCI-H1915	1.01	1.09	1.06	0.81	0.602	0.53	0.492	0.475	0.53	0.305	0.31	0.303	0.266	0.707	0.495	0.346	0.21	0.09
NCI-H650	0.976	0.617	0.356	0.308	1	0.88	0.845	0.932	1.09	0.444	0.341	0.287	0.336	0.432	0.304	0.273	0.227	0.306
NCI-H441	1.01	0.887	0.558	0.361	0.251	0.255	0.286	0.244	0.253	0.748	0.63	0.49	0.278	0.86	0.538	0.315	0.293	0.165
COR-L 105	1.2	1.14	0.929	0.595	1.31	1.14	0.979	1.21	1.2	0.292	0.362	0.29	0.244	–	–	–	–	–
NCI-H2009	1.31	1.27	1.12	0.669	1.07	1.02	1.03	1.01	1.25	0.226	0.322	0.248	0.271	–	–	–	–	–
NCI-H1437	0.687	0.359	0.273	0.225	0.375	0.321	0.326	0.315	0.413	0.369	0.183	0.189	0.137	1.02	0.686	0.78	0.574	0.219
PC-3 [JPC-3]	1.06	1.03	0.881	0.703	1.07	1.04	0.738	1.07	1.19	0.979	1.08	0.946	0.709	0.829	0.472	0.357	0.327	0.332
NCI-H1703	0.341	0.383	0.341	0.348	–	–	–	–	–	–	–	–	–	0.121	0.0954	0.107	0.083	0.118
NCI-H1944	0.834	0.702	0.314	0.184	0.701	0.636	0.412	0.582	0.722	0.21	0.225	0.138	0.127	0.349	0.25	0.275	0.177	0.192
NCI-H2085	1.02	0.899	0.93	0.592	0.921	0.903	0.766	0.898	0.897	0.192	0.218	0.21	0.301	0.751	0.42	0.47	0.245	0.276
EBC-1	0.101	0.106	0.0923	0.108	–	–	–	–	–	–	–	–	–	–	–	–	–	–
NCI-H1792	–	–	–	–	0.867	0.903	–	0.794	0.827	0.929	0.714	0.277	0.196	0.227	0.0748	0.0605	0.0466	0.0293
ABC-1	1.05	1.12	0.991	0.548	–	–	–	–	–	0.561	0.662	0.576	0.558	0.3	0.496	0.393	0.642	0.0806
NCI-H1650	0.963	1.09	0.776	0.37	0.443	0.391	0.349	0.377	0.385	0.297	0.291	0.202	0.218	–	–	–	–	–
SK-MES-1	0.872	0.946	0.45	0.358	1.12	0.99	1.03	1.03	1.06	0.293	0.257	0.227	0.218	–	–	–	–	–
NCI-H1563	0.927	0.909	0.862	0.761	0.736	0.748	0.683	0.758	0.945	0.396	0.517	0.423	0.483	–	–	–	–	–
NCI-H1299	1.14	1.12	1.08	0.908	–	–	–	–	–	–	–	–	–	–	–	–	–	–
A549	0.992	0.945	0.517	0.156	–	–	–	–	–	–	–	–	–	–	–	–	–	–
NCI-H1623	0.567	0.35	0.306	0.259	–	–	–	–	–	0.412	0.64	0.256	0.232	–	–	–	–	–
NCI-H2228	0.981	0.808	0.625	0.343	0.376	0.445	0.289	0.371	0.319	0.562	0.457	0.349	0.268	–	–	–	–	–
NCI-H2023	0.757	0.243	0.159	0.0994	0.267	0.226	0.186	0.196	0.244	0.542	0.185	0.102	0.0866	–	–	–	–	–
HCC-44	–	–	–	–	0.663	0.695	0.667	0.632	0.646	–	–	–	–	0.999	–	0.911	0.565	0.307
Calu-6	0.853	0.941	0.871	0.491	–	–	–	–	–	–	–	–	–	–	–	–	–	–
COR-L23	0.982	0.886	0.522	0.289	0.177	0.202	0.206	0.192	0.204	0.529	0.467	0.254	0.186	–	–	–	–	–
NCI-H520	0.555	0.697	0.641	0.563	0.893	0.613	0.488	0.642	0.813	0.152	0.234	0.174	0.142	–	–	–	–	–
